Results taken from ChEMBL document CHEMBL1201862, “PubChem BioAssay data set” (2004).
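These data come from cells grown in 96-well plates and exposed to compound for 48 hours at five concentrations. Abbreviation: GI50, concentration required for 50% inhibition of growth.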 Active and inactive are the calls of the source. Cut-off read from the data, not from the text of the source: active = GI50 up to about 1.1 µM and inactive = higher.

Assays:
Assay in all cases: growth of human tumour cells (NCI), 48 h
[1] = system: OVCAR-4
[2] = system: MDA-MB-435
[3] = system: LOX IMVI
[4] = system: MDA-MB-231
[5] = system: HL-60
[6] = system: COLO 205
[7] = system: T47D
[8] = system: ACHN
[9] = system: CAKI-1
[10] = system: UO-31
[11] = system: SK-MEL-5
[12] = system: DU-145
[13] = system: OVCAR-5
[14] = system: NCI/ADR-RES
[15] = system: OVCAR-8
[16] = system: NCI-H226
[17] = system: SF-268
[18] = system: KM12
[19] = system: HT-29
[20] = system: NCI-H460
[21] = system: UACC-62
[22] = system: NCI-H522
[23] = system: SR
[24] = system: BT-549
[25] = system: UACC-257
[26] = system: TK-10
[27] = system: M14
[28] = system: SW-620
[29] = system: PC-3
[30] = system: HCT-15
[31] = system: HCC 2998
[32] = system: SNB-75
[33] = system: 786-0
[34] = system: SK-MEL-2
[35] = system: NCI-H23
[36] = system: OVCAR-3
[37] = system: SF-539
[38] = system: SF-295
[39] = system: A549
[40] = system: RPMI-8226
[41] = system: MDA-N
[42] = system: CCRF-CEM
[43] = system: SNB-19
[44] = system: SN12C
[45] = system: Hs-578T
[46] = system: Malme-3M
[47] = system: HCT-116
[48] = system: HOP-62
[49] = system: U-251
[50] = system: EKVX
[51] = system: MCF7
[52] = system: HOP-92
[53] = system: IGROV-1
[54] = system: MOLT-4
[55] = system: SK-MEL-28
[56] = system: K562
[57] = system: SK-OV-3
[58] = system: RXF 393

`Cc1ccc(S(=O)(=O)N2C3C=CC(C3)[C@@H]2C(Cl)(Cl)Cl)cc1` (stereo partly drawn) was tested, and the GI50 [1] was 15.2 µM (inactive), the GI50 [2] was 27 µM (inactive) and the GI50 [3] was 18.5 µM (inactive). The GI50 [4] was 12.5 µM (inactive), the GI50 [5] was 1.66 µM (inactive) and the GI50 [6] was 20.6 µM (inactive). The GI50 [7] was 10.7 µM (inactive), the GI50 [8] was 14.3 µM (inactive) and the GI50 [9] was 13.3 µM (inactive). The GI50 [10] was 15 µM (inactive), the GI50 [11] was 19.3 µM (inactive) and the GI50 [12] was 10.5 µM (inactive). For the same compound, the GI50 [13] was 0.0391 µM (active), the GI50 [14] was 9.51 µM (inactive) and the GI50 [15] was 15.7 µM (inactive). The GI50 [16] was 15 µM (inactive), the GI50 [17] was 13.2 µM (inactive) and the GI50 [18] was 20.3 µM (inactive). The GI50 [19] was 11.8 µM (inactive), the GI50 [20] was 6.75 µM (inactive) and the GI50 [21] was 14.6 µM (inactive). For the same compound, the GI50 [22] was 14 µM (inactive), the GI50 [23] was 14.4 µM (inactive) and the GI50 [24] was 16.4 µM (inactive). The GI50 [25] was 20.1 µM (inactive), the GI50 [26] was 18.7 µM (inactive) and the GI50 [27] was 14.4 µM (inactive). The GI50 [28] was 20 µM (inactive), the GI50 [29] was 5.06 µM (inactive) and the GI50 [30] was 19.1 µM. For the same compound, the GI50 [31] was 7.31 µM (inactive), the GI50 [32] was 18.2 µM (inactive) and the GI50 [33] was 10 µM (inactive). The GI50 [34] was 7.36 µM (inactive), the GI50 [35] was 27.2 µM (inactive) and the GI50 [36] was 6.64 µM (inactive). The GI50 [37] was 12.3 µM (inactive), the GI50 [38] was 13.6 µM (inactive) and the GI50 [39] was 18.7 µM (inactive). The GI50 [40] was 3.09 µM (inactive), the GI50 [41] was 35 µM (inactive) and the GI50 [42] was 17 µM (inactive). The GI50 [43] was 17.9 µM (inactive), the GI50 [44] was 24.2 µM (inactive) and the GI50 [45] was 5.07 µM (inactive). For the same compound, the GI50 [46] was 18.9 µM (inactive), the GI50 [47] was 10.8 µM (inactive) and the GI50 [48] was 10.4 µM (inactive). For the same compound, the GI50 [49] was 15 µM (inactive), the GI50 [50] was 5.22 µM (inactive) and the GI50 [51] was 26.7 µM (inactive). The GI50 [52] was 10.1 µM (inactive), the GI50 [53] was 19.6 µM (inactive) and the GI50 [54] was 19.3 µM (inactive). The GI50 [55] was 18.2 µM (inactive).

In the case of `Cn1nnc2c3c(N(CCO)CCO)ccnc3ccc21`, the GI50 [1] is reported as > 100 µM (inactive), the GI50 [2] is reported as > 100 µM (inactive) and the GI50 [3] is reported as > 100 µM (inactive). For the same compound, the GI50 [4] was > 100 µM (inactive), the GI50 [5] was > 10 µM (inactive) and the GI50 [6] was 95.9 µM (inactive). For the same compound, the GI50 [7] was 59.3 µM (inactive), the GI50 [8] was > 100 µM (inactive) and the GI50 [9] was > 100 µM (inactive). The GI50 [10] was > 100 µM (inactive), the GI50 [11] was > 100 µM (inactive) and the GI50 [12] was > 100 µM (inactive). For the same compound, the GI50 [13] was > 100 µM (inactive), the GI50 [14] was > 100 µM (inactive) and the GI50 [15] was > 100 µM (inactive). For the same compound, the GI50 [17] was 87.5 µM (inactive), the GI50 [18] was 97.5 µM (inactive) and the GI50 [19] was 89.3 µM (inactive). The GI50 [20] was 39.9 µM (inactive), the GI50 [21] was > 100 µM (inactive) and the GI50 [22] was > 10 µM (inactive). For the same compound, the GI50 [23] was 19.1 µM (inactive), the GI50 [24] was > 100 µM (inactive) and the GI50 [25] was > 100 µM (inactive). For the same compound, the GI50 [56] was > 100 µM (inactive), the GI50 [26] was > 100 µM (inactive) and the GI50 [27] was > 100 µM (inactive). For the same compound, the GI50 [28] was > 100 µM (inactive), the GI50 [57] was > 100 µM (inactive) and the GI50 [29] was 65.6 µM (inactive). For the same compound, the GI50 [30] was > 100 µM, the GI50 [31] was 29.7 µM (inactive) and the GI50 [32] was > 100 µM (inactive). For the same compound, the GI50 [33] was > 100 µM (inactive), the GI50 [34] was > 100 µM (inactive) and the GI50 [35] was 97.9 µM (inactive). The GI50 [36] was > 100 µM (inactive), the GI50 [37] was 99.5 µM (inactive) and the GI50 [38] was > 100 µM (inactive). The GI50 [39] was > 100 µM (inactive), the GI50 [58] was > 100 µM (inactive) and the GI50 [41] was > 100 µM (inactive). The GI50 [42] was > 100 µM (inactive), the GI50 [43] was 49.1 µM (inactive) and the GI50 [44] was > 100 µM (inactive). The GI50 [45] was > 100 µM (inactive), the GI50 [46] was > 100 µM (inactive) and the GI50 [47] was 54.2 µM (inactive). For the same compound, the GI50 [48] was 47.2 µM (inactive), the GI50 [50] was > 100 µM (inactive) and the GI50 [51] was 47.9 µM (inactive). The GI50 [53] was > 100 µM (inactive) and the GI50 [54] was 47.4 µM (inactive).
